{
  "source": "patent US20230365546A1",
  "about": "“5-SUBSTITUTED INDOLE 3-AMIDE DERIVATIVES, PREPARATION METHOD AND USE THEREOF” (ORIGIANT PHARMACEUTICAL CO., LTD, priority 2020, published 2023)",
  "key": {"[1]": {"test_system": "RIPK1 autophosphorylation, phosphorylation of RIPK3 and MLKL", "experiment": "Regulation of RIPK1 signaling pathway (Western blot)", "format": "cell-based", "settings": "TNF α/Smac mimetic/Z-VAD-FMK induced, FIG. 4", "description": "TNF α was purchased from PeproTech Inc., Smac mimetic and Z-VAD-FMK was purchased from Selleck Inc., RIPA lysis buffer was purchased from Beyotime Institute of Biotechnology, cocktail was purchased from MedChemExpress (MCE) Limited, PMSF protease inhibitors, sodium dodecylsulfonate SDS, and glycine were purchased from Sigma Inc., acrylamide, tris(hydroxymethyl)aminomethane Tris, ammonium persulfate APS and N,N,N′,N′-tetramethyl ethylenediamine TEMED were purchased from Wuhan Servicebio Technology Co., Ltd.\nExtraction of total cellular protein: after the cells were treated by adding the corresponding concentration of Compounds 94 and 46 or blank vehicle to the cell supernatant and induced with TNF α/Smac mimetic/Z-VAD-FMK combination for a certain period of time, the supernatant was discarded, followed by washing three times with pre-cooled PBS or normal saline, then an appropriate volume of RIPA lysis buffer (containing 1% cocktail and 1% PMSF protease inhibitor) was added, the mixture was immediately placed on ice horizontally for lysis of 15 min, then the cell lysis buffer was scraped with a scraper and transferred to a 1.5 ml EP tube, and the cells were disrupted with a sonicator. The tubes were then centrifuged in a low temperature high speed centrifuge (12000 rpm, 15 min) to remove cell debris. […]"}, "[2]": {"test_system": "TNF α-induced SIRS", "experiment": "TNF α-induced mouse SIRS model", "format": "in vivo", "procedure": "TNF α formulated in sterile normal saline was administered at a dose of 500 μg/kg by tail vein injection for modeling. The body temperature of the mice was measured by an infrared electric thermometer. The orally-administrated vehicle was 25% castor oil in ethanol and 75% normal saline. Compounds 94 and 46 and RIPK1 positive compound GSK2982772 were administered orally before modeling with a dose of 40 mg/kg. Body temperature and the survival of mice were recorded every hour and recorded for 24 h and 48 h after 11 h.\nThis experiment established a TNF α-induced SIRS mouse model to evaluate the in vivo activity of compounds of the present invention. TNF α formulated in sterile normal saline was administered to mice at a dose of 500 μg/kg by tail vein injection for modeling. Since the measurement of rectal temperature would cause mechanical injury to mice and may interfere with the experimental results, an infrared electric thermometer was used to measure the body temperature of mice and the survival condition was observed. Compounds 94 and 46 were administered at a dose of 40 mg/kg once prior to modeling. The Vehicle group was given the corresponding vehicle control."}, "[3]": {"biological_target": "hERG potassium channel (Homo sapiens (Human), UniProt Q12809)", "sequence (Q12809 whole entry, the tested form may be a part)": "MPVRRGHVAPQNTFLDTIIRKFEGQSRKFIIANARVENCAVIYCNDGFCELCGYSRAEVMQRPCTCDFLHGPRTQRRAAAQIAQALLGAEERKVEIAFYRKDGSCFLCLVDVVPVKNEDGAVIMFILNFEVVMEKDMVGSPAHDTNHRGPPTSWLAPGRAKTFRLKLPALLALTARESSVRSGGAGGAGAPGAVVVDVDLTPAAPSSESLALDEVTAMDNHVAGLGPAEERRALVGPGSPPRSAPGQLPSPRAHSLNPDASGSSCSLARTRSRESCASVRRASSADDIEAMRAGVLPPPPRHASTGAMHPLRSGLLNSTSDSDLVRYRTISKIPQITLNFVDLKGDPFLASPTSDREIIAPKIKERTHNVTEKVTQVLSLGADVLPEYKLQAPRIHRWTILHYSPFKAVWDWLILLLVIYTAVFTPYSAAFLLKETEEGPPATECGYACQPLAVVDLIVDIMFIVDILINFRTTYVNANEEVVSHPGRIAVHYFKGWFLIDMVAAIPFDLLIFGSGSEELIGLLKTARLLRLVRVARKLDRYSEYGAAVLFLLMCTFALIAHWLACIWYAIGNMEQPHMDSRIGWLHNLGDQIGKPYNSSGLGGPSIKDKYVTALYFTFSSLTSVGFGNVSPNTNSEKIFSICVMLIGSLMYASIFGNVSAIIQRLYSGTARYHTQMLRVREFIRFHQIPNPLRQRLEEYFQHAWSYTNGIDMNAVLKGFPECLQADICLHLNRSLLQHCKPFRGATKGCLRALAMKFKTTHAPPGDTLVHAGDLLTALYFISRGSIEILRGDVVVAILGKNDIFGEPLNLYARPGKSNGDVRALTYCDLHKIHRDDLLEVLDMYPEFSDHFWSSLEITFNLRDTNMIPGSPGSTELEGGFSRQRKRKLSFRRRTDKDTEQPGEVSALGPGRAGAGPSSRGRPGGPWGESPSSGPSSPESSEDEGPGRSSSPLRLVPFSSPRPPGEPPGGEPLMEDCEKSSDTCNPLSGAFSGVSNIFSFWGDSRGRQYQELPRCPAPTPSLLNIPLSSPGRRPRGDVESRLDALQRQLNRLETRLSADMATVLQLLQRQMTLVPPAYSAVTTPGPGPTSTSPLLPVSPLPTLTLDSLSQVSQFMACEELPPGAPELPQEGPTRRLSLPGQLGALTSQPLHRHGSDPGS", "experiment": "cell-based", "procedure": "Stable HEK-hERG cells were washed with DPBS, digested with Trypsin or Tryple solution, resuspended in culture medium, and stored in centrifuge tubes for use.\nhERG currents were recorded with a whole-cell patch clamp technique. The cell suspension was placed in a small petri dish and placed on an objective table of an inverted microscope. After attachment, the cells were perfused with extracellular fluid at a recommended flow rate of 1-2 mL/min. The glass microelectrode was pulled in two steps by a microelectrode puller, and the resistance in electrode fill solution was 2-5 MΩ.\nAfter establishing the whole-cell recording mode, the clamping potential was kept at −80 mV. […] This set of pulses was repeated every 15 seconds throughout the experiment.\nAfter the current was stable, continuous extracellular perfusion administration was conducted from low concentration to high concentration. The perfusion was continued from a low concentration until the pharmaceutical effect was stable, and then the perfusion of the next concentration was conducted.\nif it was unstable, this concentration data would not be taken.\nIC50 values were obtained by fitting the Hill equation (if applicable): […]"}, "[4]": {"test_system": "DSS-induced colitis", "experiment": "DSS-induced mouse IBD model", "quoted_text": "Female C57BL/6 mice weighing 17-20 g were used. […] Fresh DSS solution was changed on Days 2, 4, and 6, respectively. […] The Control group was given normal drinking water daily and corresponding vehicles orally starting on day 7. Body weights and survival rates of mice were recorded daily. Survival curves were fitted using Graphpad Prism 5.0 software. Mice (2/group) were sacrificed on day 12 and observed for changes in colon length."}},
  "data": [
    {"smiles": "C[C@H](NC(=O)c1cn(C)c2ccc(-c3ccn4nc(NC(=O)C5CC5)nc4c3)cc12)c1cccc(F)c1", "note": "[Compound 94, (S)-5-(2-(cyclopropanecarboxamido)-[1,2,4]triazolo[1,5-a]pyridin-7-yl)-N-(1-(3-fluorophenyl)ethyl)-1-methyl-1H-indole-3-carboxamide]", "values": [
      {"measurement": "Effect on necrotic signaling pathway (RIPK1 autophosphorylation, RIPK3 and MLKL phosphorylation)", "setting": "[1]", "result": "affected the phosphorylation of RIPK3 and MLKL downstream of RIPK1 by inhibiting its autophosphorylation"},
      {"measurement": "Overall mortality", "setting": "[2]; 40 mg/kg oral once before TNF α 500 μg/kg i.v., compared with Vehicle group", "result": "significantly reduced"},
      {"measurement": "Body temperature of mice", "setting": "[2]; 40 mg/kg oral once before TNF α 500 μg/kg i.v., within 11 h", "result": "relatively normal"},
      {"measurement": "Protective effect compared with positive drug", "setting": "[2]; 40 mg/kg oral, vs GSK2982772 40 mg/kg", "result": "better protective effect than positive drug GSK2982772"},
      {"measurement": "IC50", "setting": "[3]", "result": "> 30", "unit": "µM"},
      {"measurement": "Average inhibitory ratio on hERG potassium channel current", "setting": "[3]; human, 30 μM", "result": 3.40, "unit": "%"},
      {"measurement": "Death of mice", "setting": "[4]; 40 mg/kg oral from day 7 after 2.5% DSS", "result": "no death by 14 days"},
      {"measurement": "Body weight of mice", "setting": "[4]; 40 mg/kg oral from day 7 after 2.5% DSS, FIG. 6", "result": "gradual increase in body weight"},
      {"measurement": "Colon length of mice", "setting": "[4]; 40 mg/kg oral, sacrificed on day 12, FIG. 7", "result": "basically equivalent to that of mice in Control group"},
      {"measurement": "Therapeutic effect compared with positive drug", "setting": "[4]; 40 mg/kg oral, vs GSK3145095 40 mg/kg", "result": "better therapeutic effect than positive drug GSK3145095"}
    ]}
  ]
}
